# Patent US6696458B2 (Super Gen, Inc., priority 2002, dated 2004)
# Assays:
# [1] = test system: human colon cancer xenografts; conditions: cited from earlier work
# [2] = solubilized by sodium hydroxide in water; cited from earlier work
# [3] = Dehydration/desolvation under vacuum, XRPD comparison; type: physicochemical
# Excerpt: The characterization of this weight loss as THF solvent is supported by the ^1H NMR data.
# [4] = Moisture sorption/desorption on VTI SGA-100 moisture balance; type: physicochemical; conditions: for hygroscopicity: judged from sorption 5 to 95% RH
# Excerpt: The samples were not dried prior to analysis.
# [5] = Storage in closed vial at ambient conditions, XRPD comparison; type: physicochemical; conditions: 31 days
structure (smiles),measurement,setting,value
"CC[C@@]1(O)C(=O)OCc2c1cc1n(c2=O)Cc2cc3c(N)cccc3nc2-1 [Form 9AC, 9-Amino-20(S)-Camptothecin]",anticancer activity,[1],high anticancer activity
CC[C@@](O)(C(=O)[O-])c1cc2n(c(=O)c1CO)Cc1cc3ccccc3nc1-2.[Na+] [Sodium camptothecin],antineoplastic activity in clinical trials,[2],antineoplastic activity
"CC[C@@]1(O)C(=O)OCc2c1cc1n(c2=O)Cc2cc3c([N+](=O)[O-])cccc3nc2-1 [Form C, 9-nitrocamptothecin]",form change on attempted desolvation,[3],becomes amorphous
"CC[C@@]1(O)C(=O)OCc2c1cc1n(c2=O)Cc2cc3c([N+](=O)[O-])cccc3nc2-1 [Form A, 9-nitrocamptothecin]",total weight gained in the region from 5 to 95% RH,[4]; 5 to 95% RH,about 0.03%
same,Weight % chg,"[4]; desorption, RH 4.83 %, 25.03 deg C, elapsed 157.3 min",0.0275%
same,Weight % chg,"[4]; desorption, RH 15.00 %, 25.03 deg C, elapsed 150.3 min",0.0307%
same,Weight % chg,"[4]; desorption, RH 24.95 %, 25.02 deg C, elapsed 143.3 min",0.0324%
same,Weight % chg,"[4]; desorption, RH 34.97 %, 25.02 deg C, elapsed 135.8 min",0.0348%
same,Weight % chg,"[4]; desorption, RH 45.05 %, 25.02 deg C, elapsed 127.8 min",0.0372%
same,Weight % chg,"[4]; desorption, RH 54.99 %, 25.02 deg C, elapsed 119.8 min",0.0381%
same,Weight % chg,"[4]; desorption, RH 65.02 %, 25.02 deg C, elapsed 111.8 min",0.0405%
same,Weight % chg,"[4]; desorption, RH 75.18 %, 25.03 deg C, elapsed 103.8 min",0.0429%
same,Weight % chg,"[4]; desorption, RH 84.95 %, 25.03 deg C, elapsed 94.8 min",0.0429%
same,water gained upon equilibration to 5% RH,[4]; equilibration to 5% RH,0.01%
same,hygroscopicity,[4],not hygroscopic
same,Weight % chg,"[4]; sorption, RH 5.16 %, 25.02 deg C, elapsed 11.1 min",0.0131%
same,Weight % chg,"[4]; sorption, RH 15.27 %, 25.02 deg C, elapsed 19.6 min",0.0149%
same,Weight % chg,"[4]; sorption, RH 24.98 %, 25.03 deg C, elapsed 27.2 min",0.0169%
same,Weight % chg,"[4]; sorption, RH 35.07 %, 25.03 deg C, elapsed 34.7 min",0.0210%
same,Weight % chg,"[4]; sorption, RH 45.07 %, 25.03 deg C, elapsed 42.2 min",0.0242%
same,Weight % chg,"[4]; sorption, RH 55.00 %, 25.03 deg C, elapsed 50.2 min",0.0283%
same,Weight % chg,"[4]; sorption, RH 64.96 %, 25.03 deg C, elapsed 59.2 min",0.0315%
same,Weight % chg,"[4]; sorption, RH 74.75 %, 25.03 deg C, elapsed 68.3 min",0.0347%
same,Weight % chg,"[4]; sorption, RH 84.64 %, 25.03 deg C, elapsed 77.3 min",0.0387%
same,Weight % chg,"[4]; sorption, RH 94.90 %, 25.03 deg C, elapsed 86.3 min",0.0421%
same,Weight % chg,"[4]; start, RH 14.41 %, 24.99 deg C, elapsed 0.0 min",0.0000%
"CC[C@@]1(O)C(=O)OCc2c1cc1n(c2=O)Cc2cc3cc4c(cc3nc2-1)OCO4 [10,11, MD, 10,11-methylendioxy-20(S)-camptothecin]",anticancer activity,[1],high anticancer activity
"CC[C@@]1(O)C(=O)OCc2c1cc1n(c2=O)Cc2cc3c([N+](=O)[O-])cccc3nc2-1 [Form B, 9-nitrocamptothecin]",hygroscopicity,[4],relatively hygroscopic
same,Weight % chg,"[4]; start, RH 9.87 %, 25.03 deg C, elapsed 0.0 min",0.0000%
same,stability of crystalline form on storage (XRPD pattern unchanged),[5],relatively stable
